Measurements as given in US9670126B2, “Methods of making 15-hydroxy fatty acid derivatives” (Dignity Sciences Limited, priority 2013, dated 2017).
Each block holds one molecule with its values, some of them ahead of it.

Legend:
[1] = Neat HETrE heated at 50° C. under vacuum; assay type: physicochemical; conditions: under vacuum (1822-129-4E), 1 major impurity, ester formed with itself
Experimental: (§1) Previously, neat HETrE heated at 50° C.

[2] = Solubility (reactor cleaning); conditions: residues
[3] = Heat stability trial of HETrE under solvent removal conditions (reflux in 40% MtBE:cyclohexane), UPLC; assay type: physicochemical
Experimental: as §1
A heat stability trial was conducted where a solution of HETrE (˜9.1 g) in 500 mL 40% MtBE: cyclohexane was heated at 75° C. (external oil bath temperature) at 400 mbar vacuum (condenser coolant temperature −0° C.). This established a gentle reflux. The solution was protected from light. Samples were withdrawn at various time points, under a nitrogen atmosphere, and analysed by UPLC (252 nm) (FIG. 15).
The conditions were designed to mimic the likely conditions encountered on a plant scale solvent removal from pooled column fractions. […] The reflux was extended over a further 112 hours.

[4] = cited from earlier work
[5] = Storage stability of freeze dried enzyme, judged in the DGLA reaction; conditions: stored at ambient, atmospheric conditions for two weeks; then 1.8 Munits/g DGLA
Experimental: It was also observed that the freeze dried enzyme supplied had good stability. Although recommended to be stored at −20° C., and desiccated after use, the batch was stored at ambient, atmospheric conditions for two weeks before being utilised in a reaction using the optimised enzyme loadings (1.8 Munits/g DGLA). […] The reaction was carried out in buffer solution to maintain pH and solubilise reaction components. Cysteine, a mild reducing agent, was used in place of sodium borohydride. Use of cysteine enabled the oxidation/reduction reaction to be carried out in one step. In addition no flammable hydrogen was generated during reaction/quench. Furthermore, fewer over-oxidation products were produced, likely due to cysteine's anti-oxidant properties. It is also believed that the addition of the reducing agent at beginning of the process helps to lessen irreversible enzyme inactivation by high concentrations of hydroperoxide, thus leading to lower enzyme requirement (e.g., cost savings) and lower potential for over-oxidation.

degradation of neat material [1]: showed degradation
solubility in alcohols such as ethanol and methanol, or acetone [2]: readily soluble
degradation on extended refluxing ([3]; 4.5 days refluxing in 40% MtBE:cyclohexane, external temperature 75° C.): did not cause significant degradation
degradation under plant-typical solvent evaporation conditions ([3]; in solution and on hot surfaces, timescale of <2 days): no significant degradation
Molecule: CCCCC[C@H](O)/C=C/C=C\C/C=C\CCCCCCC(=O)O [15(S)-HETrE, 15-(S)-hydroxyeicosatrienoic acid]

Molecule: N[C@@H](CSSC[C@H](N)C(=O)O)C(=O)O [cystine]
solubility in 1M HCl with heating ([4]; 1M HCl with heating): 50 mg/mL
solubility in basic solutions ([4]; basic solutions): soluble

Molecule: N[C@@H](CS)C(=O)O [Cysteine]
solubility in ethanol ([4]; 19° C.): 1.5 g/100 g of ethanol

B1: freeze dried enzyme: commercial freeze-dried soybean lipoxygenase (protein, UniProt P08170 1-839, looked up)
Seed linoleate …: MFSAGHKIKGTVVLMPKNELEVNPDGSAVDNLNAFLGRSVSLQLISATKADAHGKGKVGKDTFLEGINTSLPTLGAGESAFNIHFEWDGSMGIPGAFYIKNYMQVEFFLKSLTLEAISNQGTIRFVCNSWVYNTKLYKSVRIFFANHTYVPSETPAPLVSYREEELKSLRGNGTGERKEYDRIYDYDVYNDLGNPDKSEKLARPVLGGSSTFPYPRRGRTGRGPTVTDPNTEKQGEVFYVPRDENLGHLKSKDALEIGTKSLSQIVQPAFESAFDLKSTPIEFHSFQDVHDLYEGGIKLPRDVISTIIPLPVIKELYRTDGQHILKFPQPHVVQVSQSAWMTDEEFAREMIAGVNPCVIRGLEEFPPKSNLDPAIYGDQSSKITADSLDLDGYTMDEALGSRRLFMLDYHDIFMPYVRQINQLNSAKTYATRTILFLREDGTLKPVAIELSLPHSAGDLSAAVSQVVLPAKEGVESTIWLLAKAYVIVNDSCYHQLMSHWLNTHAAMEPFVIATHRHLSVLHPIYKLLTPHYRNNMNINALARQSLINANGIIETTFLPSKYSVEMSSAVYKNWVFTDQALPADLIKRGVAIKDPSTPHGVRLLIEDYPYAADGLEIWAAIKTWVQEYVPLYYARDDDVKNDSELQHWWKEAVEKGHGDLKDKPWWPKLQTLEDLVEVCLIIIWIASALHAAVNFGQYPYGGLIMNRPTASRRLLPEKGTPEYEEMINNHEKAYLRTITSKLPTLISLSVIEILSTHASDEVYLGQRDNPHWTSDSKALQAFQKFGNKLKEIEEKLVRRNNDPSLQGNRLGPVQLPYTLLYPSSEEGLTFRGIPNSISI
performance after storage [5]: No deterioration in performance
